In ChEMBL document CHEMBL6127013, “A chemical platform for the efficient screening of arylazopyrazole-based photoswitchable CENP-E inhibitors using mild cyclization reactions” (Bioorg Med Chem Lett, 2024):
The source made the active and inactive calls. No cut-off for these calls is given here.

Assays:
[1] = test system: HeLa; experiment: Antiproliferative activity against human HeLa cells assessed as inhibition of cell proliferation; assay type: functional, cell-based
[2] = target: T1, Centromere-associated protein E (Homo sapiens, UniProt Q02224); experiment: Inhibition of CENP-E (unknown origin) ATPase activity in presence 365 nm of light illumination
T1 sequence (Q02224 whole entry): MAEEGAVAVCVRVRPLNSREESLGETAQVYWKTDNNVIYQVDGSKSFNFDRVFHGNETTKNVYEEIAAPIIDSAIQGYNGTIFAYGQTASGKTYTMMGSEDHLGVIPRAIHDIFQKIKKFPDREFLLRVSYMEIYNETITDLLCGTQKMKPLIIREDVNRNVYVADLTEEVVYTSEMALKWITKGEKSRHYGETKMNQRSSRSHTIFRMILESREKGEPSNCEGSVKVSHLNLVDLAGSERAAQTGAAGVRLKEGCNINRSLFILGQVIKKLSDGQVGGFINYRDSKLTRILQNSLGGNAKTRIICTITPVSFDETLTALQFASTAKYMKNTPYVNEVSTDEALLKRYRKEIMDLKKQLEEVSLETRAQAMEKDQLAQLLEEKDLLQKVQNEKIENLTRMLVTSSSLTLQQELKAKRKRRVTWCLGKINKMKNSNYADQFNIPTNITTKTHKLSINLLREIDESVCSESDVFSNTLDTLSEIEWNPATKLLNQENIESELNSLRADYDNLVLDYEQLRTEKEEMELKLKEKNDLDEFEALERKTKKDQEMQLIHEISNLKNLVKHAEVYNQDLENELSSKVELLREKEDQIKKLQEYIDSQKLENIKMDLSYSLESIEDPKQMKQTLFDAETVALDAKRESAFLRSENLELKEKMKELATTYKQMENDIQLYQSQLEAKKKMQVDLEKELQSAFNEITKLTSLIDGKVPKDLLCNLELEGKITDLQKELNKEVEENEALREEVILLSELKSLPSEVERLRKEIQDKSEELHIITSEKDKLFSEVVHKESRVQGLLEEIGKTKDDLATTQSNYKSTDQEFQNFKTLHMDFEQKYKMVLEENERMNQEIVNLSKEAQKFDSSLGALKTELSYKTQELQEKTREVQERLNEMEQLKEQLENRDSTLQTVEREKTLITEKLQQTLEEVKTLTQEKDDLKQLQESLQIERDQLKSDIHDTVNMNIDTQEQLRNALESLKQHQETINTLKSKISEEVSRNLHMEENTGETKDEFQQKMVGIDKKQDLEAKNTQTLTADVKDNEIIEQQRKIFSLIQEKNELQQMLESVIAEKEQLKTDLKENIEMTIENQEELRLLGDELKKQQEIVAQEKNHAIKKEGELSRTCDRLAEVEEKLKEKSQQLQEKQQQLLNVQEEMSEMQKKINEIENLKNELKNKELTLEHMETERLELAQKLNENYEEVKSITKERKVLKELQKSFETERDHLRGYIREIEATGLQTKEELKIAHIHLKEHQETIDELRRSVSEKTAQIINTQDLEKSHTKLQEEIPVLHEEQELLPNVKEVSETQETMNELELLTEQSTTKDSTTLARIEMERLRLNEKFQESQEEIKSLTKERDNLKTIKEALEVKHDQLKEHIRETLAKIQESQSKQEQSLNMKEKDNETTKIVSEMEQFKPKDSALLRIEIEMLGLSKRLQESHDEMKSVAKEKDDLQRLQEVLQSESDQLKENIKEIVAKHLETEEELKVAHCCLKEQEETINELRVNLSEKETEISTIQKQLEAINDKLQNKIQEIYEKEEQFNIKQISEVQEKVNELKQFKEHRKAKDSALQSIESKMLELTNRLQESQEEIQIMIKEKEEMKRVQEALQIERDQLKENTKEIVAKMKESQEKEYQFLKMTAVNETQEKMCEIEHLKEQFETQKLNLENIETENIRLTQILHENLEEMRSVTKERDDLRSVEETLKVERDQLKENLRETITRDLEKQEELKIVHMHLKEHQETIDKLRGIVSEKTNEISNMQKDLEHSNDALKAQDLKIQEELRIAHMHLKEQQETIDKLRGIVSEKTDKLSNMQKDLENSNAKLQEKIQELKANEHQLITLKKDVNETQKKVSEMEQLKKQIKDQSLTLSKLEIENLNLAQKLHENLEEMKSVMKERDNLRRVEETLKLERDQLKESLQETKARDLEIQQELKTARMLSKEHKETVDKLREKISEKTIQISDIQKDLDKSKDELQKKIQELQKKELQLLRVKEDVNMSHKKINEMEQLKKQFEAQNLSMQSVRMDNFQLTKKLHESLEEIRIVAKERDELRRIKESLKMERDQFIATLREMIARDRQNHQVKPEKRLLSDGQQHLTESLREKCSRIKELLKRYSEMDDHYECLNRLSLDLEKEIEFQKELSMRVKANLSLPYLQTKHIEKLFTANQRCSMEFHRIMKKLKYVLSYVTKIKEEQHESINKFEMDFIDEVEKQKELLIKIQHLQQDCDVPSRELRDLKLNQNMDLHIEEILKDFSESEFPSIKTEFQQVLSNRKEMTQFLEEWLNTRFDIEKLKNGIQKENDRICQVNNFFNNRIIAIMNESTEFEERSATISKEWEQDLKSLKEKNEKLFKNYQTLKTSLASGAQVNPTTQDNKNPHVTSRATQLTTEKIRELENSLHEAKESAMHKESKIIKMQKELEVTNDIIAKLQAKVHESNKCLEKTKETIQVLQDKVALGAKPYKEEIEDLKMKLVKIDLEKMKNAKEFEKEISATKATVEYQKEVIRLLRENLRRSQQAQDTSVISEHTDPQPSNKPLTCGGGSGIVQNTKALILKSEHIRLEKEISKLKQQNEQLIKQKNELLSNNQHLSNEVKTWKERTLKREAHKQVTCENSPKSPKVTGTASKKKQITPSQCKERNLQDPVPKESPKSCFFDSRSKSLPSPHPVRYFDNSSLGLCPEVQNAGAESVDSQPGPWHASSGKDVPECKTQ

[3] = target: T1, Centromere-associated protein E; experiment: Inhibition of CENP-E (unknown origin) ATPase activity in absence of light illumination
[4] = target: T1, Centromere-associated protein E; experiment: Inhibition of CENP-E in human HeLa cells assessed as misaligned chromosome at 1 uM incubated for 2 hrs by DAPI staining based assay; assay type: cell-based

For CNC(=O)[C@H](Cc1ccc(/N=N/c2c(C)nn(C3=NCCN3)c2C)cc1)NC(=O)c1ccc(OC(C)C)c(Cl)c1, the IC50 [1] was over 10000 nM, the IC50 [2] was 417 nM and the IC50 [3] was 240 nM.

CNC(=O)[C@H](Cc1ccc(/N=N/c2c(C)nn(C)c2C)cc1)NC(=O)c1ccc(OC(C)C)c(Cl)c1 showed an IC50 [1] of 191 nM, an IC50 [2] of 372 nM and an IC50 [3] of 15.8 nM.

With CNC(=O)[C@H](Cc1ccc(/N=N/c2c(C)nn(C(=O)c3ccccc3)c2C)cc1)NC(=O)c1ccc(OC(C)C)c(Cl)c1 the IC50 [1] was over 10000 nM, the IC50 [2] was 129 nM and the IC50 [3] was 204 nM.

CNC(=O)[C@H](Cc1ccc(/N=N/c2c(C)nn(C(C)=O)c2C)cc1)NC(=O)c1ccc(OC(C)C)c(Cl)c1 was tested, and the IC50 [1] was over 10000 nM, the IC50 [2] was 245 nM and the IC50 [3] was 209 nM.

For CNC(=O)[C@H](Cc1ccc(NN=C(C(C)=O)C(C)=O)cc1)NC(=O)c1ccc(OC(C)C)c(Cl)c1, the inhibition [4] was “inactive”.

With CNC(=O)[C@H](Cc1ccc(/N=N/c2c(C)nn(-c3cccc4ccccc34)c2C)cc1)NC(=O)c1ccc(OC(C)C)c(Cl)c1 the IC50 [1] was 10000 nM, the IC50 [2] was over 501 nM and the IC50 [3] was under 501 nM.

For CNC(=O)[C@H](Cc1ccc(/N=N/c2c(C)nn(C(N)=O)c2C)cc1)NC(=O)c1ccc(OC(C)C)c(Cl)c1, the IC50 [1] was 457 nM, the IC50 [2] was 129 nM and the IC50 [3] was 15.1 nM.

Compound CNC(=O)[C@H](Cc1ccc(/N=N/c2c(C)nn(C(C)C)c2C)cc1)NC(=O)c1ccc(OC(C)C)c(Cl)c1 has an IC50 [1] of over 10000 nM, an IC50 [2] of 158 nM and an IC50 [3] of 123 nM.

Work on CNC(=O)[C@H](Cc1ccc(/N=N/c2c(C)nn(C(=N)N)c2C)cc1)NC(=O)c1ccc(OC(C)C)c(Cl)c1 yielded an IC50 [1] of 10000 nM, an IC50 [2] of 151 nM and an IC50 [3] of 245 nM.

CNC(=O)[C@H](Cc1ccc(/N=N/c2c(C)noc2C)cc1)NC(=O)c1ccc(OC(C)C)c(Cl)c1 was tested, and the IC50 [1] was 380 nM, the IC50 [2] was 166 nM and the IC50 [3] was 20 nM.

In the case of CCCC(=O)n1nc(C)c(/N=N/c2ccc(C[C@H](NC(=O)c3ccc(OC(C)C)c(Cl)c3)C(=O)NC)cc2)c1C, the IC50 [1] is reported as 447 nM, the IC50 [2] is reported as 83.2 nM and the IC50 [3] is reported as 33.9 nM.

Compound CNC(=O)[C@H](Cc1ccc(/N=N/c2c(C)nn(-c3ccc(F)cc3F)c2C)cc1)NC(=O)c1ccc(OC(C)C)c(Cl)c1 has an IC50 [1] of 10000 nM, an IC50 [2] of over 501 nM and an IC50 [3] of 339 nM.

CNC(=O)[C@H](Cc1ccc(/N=N/c2c(C)nn(C3CCCCC3)c2C)cc1)NC(=O)c1ccc(OC(C)C)c(Cl)c1 showed an IC50 [2] of 97.7 nM and an IC50 [3] of 105 nM.

For CNC(=O)[C@H](Cc1ccc(/N=N/c2c(C)nn(-c3ccccn3)c2C)cc1)NC(=O)c1ccc(OC(C)C)c(Cl)c1, the IC50 [1] was 10000 nM, the IC50 [2] was 162 nM and the IC50 [3] was 93.3 nM.

With CNC(=O)[C@H](Cc1ccc(/N=N/c2c(C)n[nH]c2C)cc1)NC(=O)c1ccc(OC(C)C)c(Cl)c1 the IC50 [1] was over 10000 nM, the IC50 [2] was over 501 nM and the IC50 [3] was over 501 nM.

For CNC(=O)[C@H](Cc1ccc(/N=N/c2c(C)nn(Cc3ccccc3)c2C)cc1)NC(=O)c1ccc(OC(C)C)c(Cl)c1, the IC50 [1] was over 10000 nM, the IC50 [2] was over 501 nM and the IC50 [3] was 204 nM.

CNC(=O)[C@H](Cc1ccc(/N=N/c2c(C)nn(CCO)c2C)cc1)NC(=O)c1ccc(OC(C)C)c(Cl)c1 gave an IC50 [1] of 200 nM, an IC50 [2] of 195 nM and an IC50 [3] of 12 nM.

Work on CNC(=O)[C@H](Cc1ccc(/N=N/c2c(C)nn(C=O)c2C)cc1)NC(=O)c1ccc(OC(C)C)c(Cl)c1 yielded an IC50 [1] of 550 nM, an IC50 [2] of 120 nM and an IC50 [3] of 123 nM.

CNC(=O)[C@H](Cc1ccc(/N=N/c2c(C)nn(C(=O)OC)c2C)cc1)NC(=O)c1ccc(OC(C)C)c(Cl)c1 gave an IC50 [1] of over 10000 nM, an IC50 [2] of over 501 nM and an IC50 [3] of 380 nM.

With CNC(=O)[C@H](Cc1ccc(/N=N/c2c(C)nn(C(N)=S)c2C)cc1)NC(=O)c1ccc(OC(C)C)c(Cl)c1 the IC50 [1] was 10000 nM, the IC50 [2] was 51.3 nM and the IC50 [3] was 145 nM.
